From PubChem BioAssay (NCI)
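Step 1: Grow cells in 96-well plates. Step 2: Expose to compound for 48 hours at 5 concentrations. Step 3: Interpolate endpoints linearly; if unreached, use highest concentration. TGI: total growth inhibition.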

What was measured:
Experiment in all cases: growth of human tumour cells (NCI), 48 h
K-562 leukemia = system: K-562 leukemia
ACHN renal = system: ACHN renal
MALME-3M melanoma = system: MALME-3M melanoma
SK-MEL-5 melanoma = system: SK-MEL-5 melanoma
SK-OV-3 ovarian = system: SK-OV-3 ovarian
OVCAR-8 ovarian = system: OVCAR-8 ovarian
HOP-62 NSCLC = system: HOP-62 NSCLC
SW-620 colon = system: SW-620 colon
CAKI-1 renal = system: CAKI-1 renal
MOLT-4 leukemia = system: MOLT-4 leukemia
SNB-19 CNS = system: SNB-19 CNS
RXF-631 renal = system: RXF-631 renal
HT29 colon = system: HT29 colon
KM20L2 colon = system: KM20L2 colon
SNB-75 CNS = system: SNB-75 CNS
LOX IMVI melanoma = system: LOX IMVI melanoma
DLD-1 colon = system: DLD-1 colon
A498 renal = system: A498 renal
HOP-92 NSCLC = system: HOP-92 NSCLC
SNB-78 CNS = system: SNB-78 CNS
RPMI-8226 leukemia = system: RPMI-8226 leukemia
NCI-H522 lung = system: NCI-H522 lung
CCRF-CEM leukemia = system: CCRF-CEM leukemia
IGROV1 ovarian = system: IGROV1 ovarian
OVCAR-5 ovarian = system: OVCAR-5 ovarian
SF-268 CNS = system: SF-268 CNS
XF 498 CNS = system: XF 498 CNS
KM12 colon = system: KM12 colon
SF-539 CNS = system: SF-539 CNS
OVCAR-3 ovarian = system: OVCAR-3 ovarian
UACC-62 melanoma = system: UACC-62 melanoma
HL-60(TB) leukemia = system: HL-60(TB) leukemia
SF-295 CNS = system: SF-295 CNS
LXFL 529 NSCLC = system: LXFL 529 NSCLC
U251 CNS = system: U251 CNS
TK-10 renal = system: TK-10 renal
SN12C renal = system: SN12C renal
RXF 393 renal = system: RXF 393 renal
COLO 205 colon = system: COLO 205 colon
786-0 renal = system: 786-0 renal
HOP-18 NSCLC = system: HOP-18 NSCLC
HCT-15 colon = system: HCT-15 colon
OVCAR-4 ovarian = system: OVCAR-4 ovarian
HCT-116 colon = system: HCT-116 colon
NCI-H460 lung = system: NCI-H460 lung
DMS 114 small cell lung = system: DMS 114 small cell lung
M14 melanoma = system: M14 melanoma
NCI-H23 lung = system: NCI-H23 lung
NCI-H226 lung = system: NCI-H226 lung
UACC-257 melanoma = system: UACC-257 melanoma
EKVX NSCLC = system: EKVX NSCLC
DMS 273 small cell lung = system: DMS 273 small cell lung
SK-MEL-2 melanoma = system: SK-MEL-2 melanoma
SK-MEL-28 melanoma = system: SK-MEL-28 melanoma
HCC-2998 colon = system: HCC-2998 colon
SR leukemia = system: SR leukemia
UO-31 renal = system: UO-31 renal
A549 NSCLC = system: A549 NSCLC
M19-MEL melanoma = system: M19-MEL melanoma

Compound: C=CCN=C1N=C(C)C(C(=O)OCC)S1 (centres undefined)
- TGI (K-562 leukemia): > 100 µM
- TGI (ACHN renal): > 100 µM
- TGI (MALME-3M melanoma): > 100 µM
- TGI (SK-MEL-5 melanoma): > 100 µM
- TGI (SK-OV-3 ovarian): > 100 µM
- TGI (OVCAR-8 ovarian): > 100 µM
- TGI (HOP-62 NSCLC): > 100 µM
- TGI (SW-620 colon): > 100 µM
- TGI (CAKI-1 renal): > 100 µM
- TGI (MOLT-4 leukemia): > 100 µM
- TGI (SNB-19 CNS): > 100 µM
- TGI (RXF-631 renal): > 100 µM
- TGI (HT29 colon): > 100 µM
- TGI (KM20L2 colon): > 100 µM
- TGI (SNB-75 CNS): > 100 µM
- TGI (LOX IMVI melanoma): > 100 µM
- TGI (DLD-1 colon): > 100 µM
- TGI (A498 renal): > 100 µM
- TGI (HOP-92 NSCLC): > 100 µM
- TGI (SNB-78 CNS): > 100 µM
- TGI (RPMI-8226 leukemia): > 100 µM
- TGI (NCI-H522 lung): > 100 µM
- TGI (CCRF-CEM leukemia): > 100 µM
- TGI (IGROV1 ovarian): > 100 µM
- TGI (OVCAR-5 ovarian): > 100 µM
- TGI (SF-268 CNS): > 100 µM
- TGI (XF 498 CNS): > 100 µM
- TGI (KM12 colon): > 100 µM
- TGI (SF-539 CNS): > 100 µM
- TGI (OVCAR-3 ovarian): > 100 µM
- TGI (UACC-62 melanoma): > 100 µM
- TGI (HL-60(TB) leukemia): > 100 µM
- TGI (SF-295 CNS): > 100 µM
- TGI (LXFL 529 NSCLC): > 100 µM
- TGI (U251 CNS): > 100 µM
- TGI (TK-10 renal): > 100 µM
- TGI (SN12C renal): > 100 µM
- TGI (RXF 393 renal): > 100 µM
- TGI (COLO 205 colon): > 100 µM
- TGI (786-0 renal): > 100 µM
- TGI (HOP-18 NSCLC): > 100 µM
- TGI (HCT-15 colon): > 100 µM
- TGI (OVCAR-4 ovarian): > 100 µM
- TGI (HCT-116 colon): > 100 µM
- TGI (NCI-H460 lung): > 100 µM
- TGI (DMS 114 small cell lung): > 100 µM
- TGI (M14 melanoma): > 100 µM
- TGI (NCI-H23 lung): > 100 µM
- TGI (NCI-H226 lung): > 100 µM
- TGI (UACC-257 melanoma): > 100 µM
- TGI (EKVX NSCLC): > 100 µM
- TGI (DMS 273 small cell lung): > 100 µM
- TGI (SK-MEL-2 melanoma): > 100 µM
- TGI (SK-MEL-28 melanoma): > 100 µM
- TGI (HCC-2998 colon): > 100 µM
- TGI (SR leukemia): > 100 µM
- TGI (UO-31 renal): > 100 µM
- TGI (A549 NSCLC): > 100 µM

Compound: CCCCNC(=O)NNC(=O)c1cc(/C=C/c2cccc([N+](=O)[O-])c2)ncn1
- TGI (K-562 leukemia): > 100 µM
- TGI (ACHN renal): > 100 µM
- TGI (MALME-3M melanoma): > 100 µM
- TGI (SK-MEL-5 melanoma): > 100 µM
- TGI (SK-OV-3 ovarian): > 100 µM
- TGI (OVCAR-8 ovarian): > 100 µM
- TGI (HOP-62 NSCLC): > 100 µM
- TGI (SW-620 colon): 33.7 µM
- TGI (CAKI-1 renal): > 100 µM
- TGI (M19-MEL melanoma): > 100 µM
- TGI (MOLT-4 leukemia): > 100 µM
- TGI (SNB-19 CNS): > 100 µM
- TGI (RXF-631 renal): > 100 µM
- TGI (HT29 colon): > 100 µM
- TGI (KM20L2 colon): > 100 µM
- TGI (SNB-75 CNS): > 100 µM
- TGI (LOX IMVI melanoma): > 100 µM
- TGI (DLD-1 colon): > 100 µM
- TGI (A498 renal): > 100 µM
- TGI (HOP-92 NSCLC): > 100 µM
- TGI (SNB-78 CNS): > 100 µM
- TGI (RPMI-8226 leukemia): 59.8 µM
- TGI (NCI-H522 lung): > 100 µM
- TGI (CCRF-CEM leukemia): > 100 µM
- TGI (IGROV1 ovarian): > 100 µM
- TGI (OVCAR-5 ovarian): > 100 µM
- TGI (SF-268 CNS): > 100 µM
- TGI (XF 498 CNS): > 100 µM
- TGI (KM12 colon): > 100 µM
- TGI (OVCAR-3 ovarian): > 100 µM
- TGI (UACC-62 melanoma): > 100 µM
- TGI (HL-60(TB) leukemia): > 100 µM
- TGI (SF-295 CNS): > 100 µM
- TGI (U251 CNS): 44.8 µM
- TGI (TK-10 renal): > 100 µM
- TGI (SN12C renal): > 100 µM
- TGI (RXF 393 renal): > 100 µM
- TGI (COLO 205 colon): > 100 µM
- TGI (786-0 renal): > 100 µM
- TGI (HOP-18 NSCLC): > 100 µM
- TGI (HCT-15 colon): > 100 µM
- TGI (HCT-116 colon): > 100 µM
- TGI (NCI-H460 lung): > 100 µM
- TGI (DMS 114 small cell lung): > 100 µM
- TGI (M14 melanoma): > 100 µM
- TGI (NCI-H23 lung): > 100 µM
- TGI (NCI-H226 lung): > 100 µM
- TGI (UACC-257 melanoma): > 100 µM
- TGI (EKVX NSCLC): > 100 µM
- TGI (DMS 273 small cell lung): > 100 µM
- TGI (SK-MEL-2 melanoma): > 100 µM
- TGI (SK-MEL-28 melanoma): > 100 µM
- TGI (HCC-2998 colon): > 100 µM
- TGI (SR leukemia): > 100 µM
- TGI (UO-31 renal): > 100 µM
- TGI (A549 NSCLC): > 100 µM
